Patent publication US20260193672A1, “INDUCIBLE CELL SUICIDE SWITCHES AND THEIR USE IN CELL AND GENE THERAPIES” (The General Hospital Corporation, priority 2022, published 2026)

How the values were obtained:
Jurkat cells [1] = assay: Loss of BFP+ cells with three degron tags fused to ICAD; type: cell-based; conditions: 48 hours of exposure to controller drug; SMASH tag, dTAG or IKZF3 degron fused to ICAD
Experimental: (§1) Unless otherwise indicated, cell death assays with Jurkat or primary human T cells were performed by 48 hour incubation with the relevant drug and flow cytometry analysis for the marker of transduction.
To determine whether the ICAD-degron CAD suicide switch design is generalizable to multiple degron systems, three different degron tags (SMASH, dTag, superdegron) were fused to ICAD to facilitate ICAD degradation.

NALM6 tumor cells = assay: Incucyte live cell imaging co-culture assay, tumor cell cytolysis; type: cell-based
Experimental: (§2) On day −1, tissue culture plates were coated with anti-CD71 antibody diluted in PBS. On day 0, the plates were washed with PBS and then Nalm6-luciferase-GFP cells were added to the coated plates. Four hours later, primary human CAR T cells were added at a 1:1 ratio with the Nalm6 cells. Plates were imaged every hour for at least 90 hours ([…] ZOOM, live-cell analysis system). Total green, red, and blue object areas were collected, indicative of GFP+ tumor and mCherry+/mTagBFP2+ CAR and/or suicide switch T cell area.
Tumor cell cytolysis was evaluated by Incucyte live cell imaging co-culture assay with NALM6 tumor cells.
We also generated a tri-cistronic suicide switch CAR lentivector. The same Incucyte live cell imaging co-culture assay with NALM6 tumor cells and single lentivector ICAD-degron/CAD/CAR was performed in primary human T cells. […] With lenalidomide, anti-tumor cytolysis was prevented.

[2] = test system: Jurkat cells expressing the switch; assay: DNA damage assay (gamma-H2AX intracellular flow); type: cell-based
Excerpt: To determine whether promoter strength modifies ICADdegron-CAD suicide switch efficiency, Jurkat cells were transduced to express the ICAD-degron 2A CAD p.R11W suicide switch was expressed, driven by an EF1alpha or PGK promoter.

[3] = test system: ICAD-degron/CAD suicide switch-positive primary human T cells; assay: Depletion of ICAD-degron/CAD suicide switch-positive T cells; type: cell-based; conditions: 1 uM lenalidomide treatment
Experimental: as §1
Control of CAR T cell function with a lenalidomide suicide switch was also evaluated.

[4] = test system: suicide switch CAR T cells; assay: Incucyte live cell imaging co-culture assay, CAR T cell proliferation; type: cell-based, human
Experimental: as §2
In summary, the suicide switch can be used to deplete CAR T cells (FIG. 6E).

[5] = test system: cells transduced to express pairs of BCL-xL and variants of PUMA; assay: Growth and survival of cells expressing BCL-xL and PUMA variants fused to 913iK0; type: cell-based; conditions: BCL-xL and PUMA variants fused to E3 recruitment domain 913iK0
Experimental: Pairs of pro/anti-apoptotic proteins were evaluated for their ability to work as an effective suicide switch. BCL-xL and BIM transgene pairs were toxic to Jurkat cells transduced to express these lentiviruses, as assessed by total cell number 48 hours after high-titer transduction, see FIG. 1A. […] In this design, the goal was for the pro-apoptotic protein PUMA to bind endogenous anti-apoptotic proteins, and for drug-dependent recruitment to the E3 to result in anti-apoptotic protein ubiquitination, degradation, and cell death.

[6] = test system: cells expressing ICAD-degron/CAD; assay: Cell depletion by ICAD-degron/CAD lenalidomide-inducible suicide switch (summary statement); type: cell-based; conditions: lenalidomide-induced, subtherapeutic lenalidomide concentrations
Experimental: as §1

primary human T cell = assay: Four-day growth assay; type: cell-based; conditions: compared with other CAD sequences and vector control
Experimental: To test whether variations in CAD modify the performance of CAD/ICAD suicide switch, a primary human T cell four-day growth assay was performed comparing vector control, and then three modifications of ICAD-degron 2A CAD expression, differentiated by the CAD sequences.

primary human T cells = assay: Cell depletion, CAD/ICAD versus iCasp9 suicide switch, head-to-head; type: cell-based; conditions: dose ranges of lenalidomide and AP1903, normalized to untreated cells
Experimental: as §1

[7] = test system: primary human CAR T cells; assay: Competitive proliferation assay of suicide switch-transduced versus untransduced cells; type: cell-based; conditions: without lenalidomide
Excerpt: Cells were stimulated weekly with an equal number of irradiated K562 cells transduced to express CD3 and CD28 scFvs. Flow cytometry was used to enumerate the percentage of mTagBFP2+ cells on days 0, 7, and 14.

Jurkat cells [8] = assay: Competitive growth assay of modified lenalidomide suicide switches; type: cell-based; conditions: for cell viability, normalized fluorescence: in the absence of lenalidomide, normalized to % transduced on day 0
Excerpt: To assess whether further modification of CAD could further enhance the suicide switch, we performed structural modeling of CAD, identifying side chain interactions with R11 and W 11 in the mutant form.

## CC[C@H](C(=O)N1CCCC[C@H]1C(=O)O[C@H](CCc1ccc(OC)c(OC)c1)c1ccccc1OCC(=O)NCCCCCCOc1cccc2c1C(=O)N(C1CCC(=O)NC1=O)C2=O)c1cc(OC)c(OC)c(OC)c1 (stereo partly drawn) [dTAG-13, 1-[(2S)-1-Oxo-2-(3,4,5-trimethoxyphenyl)butyl]-(2S)-2-piperidinecarboxylate (1R)-3-(3,4-dimethoxyphenyl)-1-[2-[2-[[6-[[2-(2,6-dioxo-3-piperidinyl)-2,3-dihydro-1,3-dioxo-1H-isoindol-4-yl]oxy]hexyl]amino]-2-oxoethoxy]phenyl]propyl ester]
Jurkat cells [1]
  drug-dependent cell depletion (loss of BFP+ cells): allowed for drug-dependent cell depletion

## Nc1nc(O)c2ncn(COC(CO)CO)c2n1 [ganciclovir]
Jurkat cells [1]
  drug-dependent cell depletion (loss of BFP+ cells): but not the SMASH tag, allowed for drug-dependent cell depletion

## Nc1cccc2c1CN(C1CCC(=O)NC1=O)C2=O (stereo not drawn) [lenalidomide]
NALM6 tumor cells; 16 hour delayed lenalidomide, dual-vector CAR T cells
  effect on tumor cell depletion by suicide switch CAR T cells: ablated tumor cell depletion
NALM6 tumor cells; immediate lenalidomide, dual-vector CAR T cells
  effect on tumor cell cytolysis by suicide switch CAR T cells: prevented tumor cell cytolysis
NALM6 tumor cells; with lenalidomide
  effect on anti-tumor cytolysis, single lentivector ICAD-degron/CAD/CAR T cells: prevented
[2]; gamma-H2AX, timecourse after 1000 nM lenalidomide addition
  time in which DNA damage sensing occurred: within one hour
[3]
  depletion of suicide switch-positive primary human T cells: successful depletion
[4]; after 16 hour delayed lenalidomide, without rebound
  time to depletion of the CAR T cells: ≤ 24 h
[4]; immediate lenalidomide
  effect on suicide switch CAR T cell expansion: prevented suicide switch CAR T cell expansion
Jurkat cells [1]
  drug-dependent cell depletion (loss of BFP+ cells): allowed for drug-dependent cell depletion
[5]
  effect on growth and survival of cells: did not alter the growth and survival
[6]
  cell depletion: > 90%

## ICAD-degron 2A CAD p.R11W: multicistronic transgene: C-terminally degron-tagged human ICAD, 2A, human CAD p.R11W (SEQ ID NO: 19/20)
Primary human T cell
  drug-independent cell fitness: enhanced drug-independent cell fitness
[2]; Jurkat cells, EF1alpha promoter compared with PGK promoter
  DNA damage response by promoter strength: enhanced DNA damage response
Primary human T cells
  cell killing compared with iCasp9 switch: more complete cell killing
[7]
  T cell proliferation in competition with untransduced cells, compared with control: comparable
Jurkat cells [8]
  cell viability, normalized fluorescence: improved cell viability
[6]
  cell depletion: > 90%

## ICAD-degron-CADp.R11A: suicide switch transgene with CAD p.R11A (SEQ ID NO: 23/24)
Jurkat cells [8]
  cell viability, normalized fluorescence: improved cell viability

## ICAD-degron-CADp.R11W/E68A: suicide switch transgene with CAD p.R11W/E68A (SEQ ID NO: 29/30)
Jurkat cells [8]
  cell viability, normalized fluorescence: improved cell viability

## ICAD-degron-CADp.R11W/K18A: suicide switch transgene with CAD p.R11W/K18A (SEQ ID NO: 27/28)
Jurkat cells [8]
  cell viability, normalized fluorescence: improved cell viability
Jurkat cells [8]; with 1 uM lenalidomide
  cell depletion: efficient cell depletion
Jurkat cells [8]; without lenalidomide
  drug-independent competitive growth: most improved

## ICAD-degron-CADp.Y49W: suicide switch transgene with CAD p.Y49W (SEQ ID NO: 25/26)
Jurkat cells [8]
  cell viability, normalized fluorescence: improved cell viability
